Experimental data reported in paper PMC12323867 (RSC Medicinal Chemistry, 2025).
Like-named read-outs stand apart in the source and are kept apart here.

Tests used:
LSD1 [1] = conditions: cited from earlier work
[2] = molecular target: T1, LSD1-HDAC1-CoREST complex (Homo sapiens, UniProt O60341); test: LSD1 HRP-coupled demethylase assay, SP2509/SP2577 analogues; format: biochemical; conditions: LSD1 enzymatic activity, complex 50 nM, HRP assay; read-out: LSD1-HDAC1-CoREST IC50
T1 construct: full length native LSD1 (UniProt ID: O60341); made in house; host or cells: HEK 293F cells (co-transfection, pcDNA3 vectors)
Description: The analogues synthesised were then tested for their ability to inhibit LSD1 using purified LSD1-HDAC1-CoREST complex (Fig. 2B). We used an established fluorescent read out horseradish peroxidase (HRP) assay to monitor LSD1 enzymatic activity in the CoREST complex[8] (see ESI ^† for full details).
2. Supplementary Information: Biology
2.1. LSD-HDAC1-CoREST expression and purification
Lysis Buffer (Buffer A) Wash Buffer (Buffer B)
• 50 mM Tris/Cl pH 7.5 • 50 mM Tris/Cl pH 7.5
• 50 mM Potassium Acetate • 50 mM Potassium Acetate […]
Cleavage Buffer (Buffer C) Gel Filtration Buffer (Buffer D)
• 50 mM Tris/Cl pH 7.5 Filtered at vacuum.
• 50 mM Potassium Acetate • 50 mM Tris/Cl pH 7.5
• 5 % v/v Glycerol • 50 mM Potassium Acetate
• 0.5 mM tris(2- • 0.5 mM TCEP carboxyethyl)phosphine (TCEP)
The CoREST ternary complex was comprised of full length native LSD1 (UniProt ID: O60341), full length HDAC1 (UniProt ID: Q13547) and N-terminally truncated RCOR1 (86-485aa) (UniProt ID:
Q9UKL0). Protein constructs were cloned into pcDNA3 vector. The RCOR1 constructs contained an N-terminal (His)10(Flag)3 tag followed by a Tev protease cleavage site. The constructs for ternary complex were co-transfected into suspension-grow HEK 293F cells (Thermofisher Scientific) with polyethylenimine (PEI) (Sigma) and harvested after 48 hours. This section of the procedure was carried out as described previously in literature.11,12
Cell pellets from 1.2 L culture were defrosted, and buffer A (30 mL) was added. The solution was sonicated (Soniprep 150) in an beaker of ice using a 9 mm probe at 10 ampules; operated with 10 […]
2.2. SP2509/SP2577 analogues LSD1 HRP-coupled demethylase assay protocol The commercial reagents for the assay were HRP and Amplex® Ultrared, which are available to purchase from ThermoFisher (31490) and Invitrogen (10737474), respectively. HRP was made up to 8 mg/mL stock solution in 1xPBS buffer, divided into 10 µL aliquots, snap-frozen in liquid nitrogen and stored at -80 °C. Amplex® Ultrared was made up to 10 mM solution in DMSO, divided into 20 µL aliquots and wrapped in foil, away from light and stored at -20 °C. For each assay experiment, CoREST complex was diluted to 500 nM in assay buffer (20 mM HEPES pH 7.5 and 50 mM NaCl).
HRP was defrosted by diluting each aliquot in 90 µL 1xPBS solution, making a 0.8 mg/mL solution.
Amplex® Ultrared was made up to 200 µM in assay buffer. HRP and Amplex® Ultrared were pre-mixed before addition to the plate. H3K4Me2 substrate (4 mM in deionised water) was diluted to 300 µM in assay buffer. All stocks were stored on ice during assay preparation.
The assay was carried out using a ‘black well’ 96 well plate (Corning no. 3915) in a reaction volume of 100 μL. The final concentrations in the assay were as follows: 50 nM CoREST complex, 10 μM Amplex® UltraRed, 0.04 mg/mL HRP and 15 μM H3K4Me2 peptide substrate. The final DMSO concentration in each well was 1.1 %. Three wells of each experiments were designated ‘background controls’ and contained 85 μL assay buffer, premixed Amplex® UltraRed and HRP (10 µL) and H3K4Me peptide substrate (300 μM, 5 µL).
A stock solution of inhibitor (1 -5 mM in DMSO) was subjected to an inhibitor dilution series, in Eppendorf tubes, in 100 % DMSO. Each new inhibitor stock (4 μL) was diluted in assay buffer (1 in 75) within a new Eppendorf set with assay buffer (20 mM HEPES pH 7.5 and 50 m M NaCl), ensuring the percentage of DMSO was consistent throughout the series. To each well of interest, Inhibitor in assay buffer (75 μL) was added, and CoREST complex (500 nM, 10 µL) was added thereafter. The plate was placed on a rocker and pre -incubated for 30 mins. To each well, premixed Amplex® UltraRed and HRP (10 µL) was added before H3K4Me 2 peptide substrate in assay buffer solution (300 μM, 5 µL) was added to the wall of the plate. The plate was covered in foil and spun down for one minute before being placed in the plate reader. The final percentage concentration of DMSO in […]

H3K4me2 levels in cells = test system: H3K4me2 levels in cells; set-up: method as in PMID 38742921; conditions: cited from earlier work
LSD1 [3] = test system: LSD1; set-up: method as in PMID 38742921; conditions: cited from earlier work

C/C(=N\NC(=O)c1cccc(S(=O)(=O)N2CCN(C)CC2)c1)c1cc(Cl)ccc1O [SP2577]
IC50 (LSD1 [1]; read-out: LSD1 IC50): 1330 nM
IC50 (LSD1 [1]; read-out: LSD1 mean IC50): 127 nM
IC50 [2]: 306 nM
H3K4me2 levels in cells (H3K4me2 levels in cells): failed to increase H3K4me2 levels
ability to increase H3K4me2 on peptides and nucleosomes (LSD1 [3]): no effect
